{
  "source": "patent US12017975B2",
  "about": "“Myc-Max inhibitor compound therapeutics for cancer treatment, methods and uses associated therewith” (THE UNIVERSITY OF BRITISH COLUMBIA, priority 2018, dated 2024)",
  "test_system": "Myc-Max transcriptional activity",
  "assay": "Cignal c-Myc luciferase reporter assay in LNCaP cells",
  "assay_type": "cell-based",
  "details": "Homo sapiens, LNCaP; for inhibition at 25 µM: read-out: % Inhibition 25 μM; for IC50: assay not named, read-out: IC50",
  "method": "Cell transfection was performed using TransIT-2020™ transfection reagents according to the manufacturer's instructions (Mirus™). LNCaP cells were plated at 10000 cells per well and treated for 1 day with the indicated concentration of compound. Myc reporter activity was measured using the Cignal Myc Reporter Assay Kit™ from Qiagen™ (#336841) according to the manufacturer's instructions. For the UBE2C reporter assay, 22rv1 cells were plated at 10000 cells per well in 96-well plates in RPMI media supplemented with 5% charcoal-stripped serum (CSS) and treated for 1 day with 1 μM, 10 μM and 25 μM of compound.\nCompounds were subjected to experimental evaluation using the commercially available transcriptional assay Cignal c-Myc luciferase reporter assay in LNCaP cells. […] A transiently transfected Myc-driven luciferase reporter allowed the monitoring of Myc-regulated signal in LNCaP upon treatment with the in silico identified compounds.",
  "note": "Like-named read-outs stand apart in the source and are kept apart here.",
  "data": [
    {"smiles": "S=C(NCc1ccccc1)Nc1cc(Cl)cc(Cl)c1", "note": "[VPC-70498]", "values": [
      {"measurement": "inhibition at 5 µM", "setting": "TABLE 3", "value": 36, "unit": "%"},
      {"measurement": "inhibition at 10 µM", "setting": "TABLE 3", "value": 106, "unit": "%"},
      {"measurement": "inhibition at 25 µM", "setting": "TABLE 3", "value": 100, "unit": "%"}
    ]},
    {"smiles": "COC(=O)c1cc(NC(=S)NCc2ccccc2)cc(Cl)c1F", "note": "[VPC-70501]", "values": [
      {"measurement": "inhibition at 5 µM", "setting": "TABLE 3", "value": 34, "unit": "%"},
      {"measurement": "inhibition at 10 µM", "setting": "TABLE 3", "value": 37, "unit": "%"},
      {"measurement": "inhibition at 25 µM", "setting": "TABLE 3", "value": 90, "unit": "%"}
    ]},
    {"smiles": "C[C@@H]1CN(Cc2ccc(CNC(=S)Nc3cccc(C(F)(F)F)c3)cc2)C[C@@H](C)O1", "note": "[VPC-70506]", "values": [
      {"measurement": "inhibition at 5 µM", "setting": "TABLE 3", "value": 73, "unit": "%"},
      {"measurement": "inhibition at 10 µM", "setting": "TABLE 3", "value": 66, "unit": "%"},
      {"measurement": "inhibition at 25 µM", "setting": "TABLE 3", "value": 89, "unit": "%"}
    ]},
    {"smiles": "O=C(Nc1cccc(C(F)(F)F)c1)Nc1cccc(C(F)(F)F)c1", "note": "[VPC-70511]", "values": [
      {"measurement": "inhibition at 5 µM", "setting": "TABLE 3", "value": 108, "unit": "%"},
      {"measurement": "inhibition at 10 µM", "setting": "TABLE 3", "value": 112, "unit": "%"},
      {"measurement": "inhibition at 25 µM", "setting": "TABLE 3", "value": 102, "unit": "%"},
      {"measurement": "IC50", "setting": "TABLE 2, values match Myc-Max transcriptional activity", "value": 2, "unit": "µM"}
    ]},
    {"smiles": "FC(F)(F)c1cccc(NC(=S)Nc2ccc(Cl)c(C(F)(F)F)c2)c1", "note": "[VPC-70514]", "values": [
      {"measurement": "inhibition at 5 µM", "setting": "TABLE 3", "value": 109, "unit": "%"},
      {"measurement": "inhibition at 10 µM", "setting": "TABLE 3", "value": 110, "unit": "%"},
      {"measurement": "inhibition at 25 µM", "setting": "TABLE 3", "value": 102, "unit": "%"}
    ]},
    {"smiles": "FC(F)Oc1ccc(CNC(=S)Nc2cccc(C(F)(F)F)c2)cc1", "note": "[VPC-70523]", "values": [
      {"measurement": "inhibition at 5 µM", "setting": "TABLE 3", "value": -4, "unit": "%"},
      {"measurement": "inhibition at 10 µM", "setting": "TABLE 3", "value": 104, "unit": "%"},
      {"measurement": "inhibition at 25 µM", "setting": "TABLE 3", "value": 102, "unit": "%"}
    ]},
    {"smiles": "S=C(NCc1ccc(Cl)nc1)Nc1cccc(Cl)c1", "note": "[VPC-70524]", "values": [
      {"measurement": "inhibition at 5 µM", "setting": "TABLE 3", "value": 22, "unit": "%"},
      {"measurement": "inhibition at 10 µM", "setting": "TABLE 3", "value": 4, "unit": "%"},
      {"measurement": "inhibition at 25 µM", "setting": "TABLE 3", "value": 102, "unit": "%"}
    ]},
    {"smiles": "NS(=O)(=O)c1cc(F)cc(NC(=S)NCc2ccccc2)c1", "note": "[VPC-70525]", "values": [
      {"measurement": "inhibition at 5 µM", "setting": "TABLE 3", "value": 40, "unit": "%"},
      {"measurement": "inhibition at 10 µM", "setting": "TABLE 3", "value": 35, "unit": "%"},
      {"measurement": "inhibition at 25 µM", "setting": "TABLE 3", "value": 102, "unit": "%"}
    ]},
    {"smiles": "S=C(NCc1ccccc1)Nc1cccc(COc2ccccc2)c1", "note": "[VPC-70526]", "values": [
      {"measurement": "inhibition at 5 µM", "setting": "TABLE 3", "value": 41, "unit": "%"},
      {"measurement": "inhibition at 10 µM", "setting": "TABLE 3", "value": 62, "unit": "%"},
      {"measurement": "inhibition at 25 µM", "setting": "TABLE 3", "value": 94, "unit": "%"}
    ]},
    {"smiles": "O=C(NCCc1ccccc1)C(=O)Nc1cc(C(F)(F)F)cc(C(F)(F)F)c1", "note": "[VPC-70527]", "values": [
      {"measurement": "inhibition at 5 µM", "setting": "TABLE 3", "value": 38, "unit": "%"},
      {"measurement": "inhibition at 10 µM", "setting": "TABLE 3", "value": 43, "unit": "%"},
      {"measurement": "inhibition at 25 µM", "setting": "TABLE 3", "value": 92, "unit": "%"}
    ]},
    {"smiles": "CC(C)(C)CNC(=S)Nc1cccc(C(F)(F)F)c1", "note": "[VPC-70529]", "values": [
      {"measurement": "inhibition at 5 µM", "setting": "TABLE 3", "value": 14, "unit": "%"},
      {"measurement": "inhibition at 10 µM", "setting": "TABLE 3", "value": 52, "unit": "%"},
      {"measurement": "inhibition at 25 µM", "setting": "TABLE 3", "value": 94, "unit": "%"}
    ]},
    {"smiles": "Cc1c(Cl)cc(NC(=S)NCc2ccccc2)cc1Cl", "note": "[VPC-70530]", "values": [
      {"measurement": "inhibition at 12.5 µM", "setting": "TABLE 3", "value": 94, "unit": "%"}
    ]},
    {"smiles": "NC(=O)NCc1ccc(NC(=S)NCc2ccccc2)cc1", "note": "[VPC-70531]", "values": [
      {"measurement": "inhibition at 5 µM", "setting": "TABLE 3", "value": 0, "unit": "%"},
      {"measurement": "inhibition at 10 µM", "setting": "TABLE 3", "value": 27, "unit": "%"},
      {"measurement": "inhibition at 12.5 µM", "setting": "TABLE 3", "value": 47, "unit": "%"},
      {"measurement": "inhibition at 25 µM", "setting": "TABLE 3", "value": 81, "unit": "%"}
    ]},
    {"smiles": "Fc1ccc(NC(=S)NCc2ccccc2)cc1C(F)(F)F", "note": "[VPC-70532]", "values": [
      {"measurement": "inhibition at 12.5 µM", "setting": "TABLE 3", "value": 101, "unit": "%"}
    ]},
    {"smiles": "FC(F)(F)c1cccc(NC(=S)NCc2ccccc2C(F)(F)F)c1", "note": "[VPC-70535]", "values": [
      {"measurement": "inhibition at 12.5 µM", "setting": "TABLE 3", "value": 95, "unit": "%"}
    ]},
    {"smiles": "O=C(NCCNS(=O)(=O)c1ccccc1)NNC(=O)c1cccc(C(F)(F)F)c1", "note": "[VPC-70549]", "values": [
      {"measurement": "inhibition at 12.5 µM", "setting": "TABLE 3", "value": 75, "unit": "%"}
    ]},
    {"smiles": "N#Cc1ccc(NNC(=O)c2ccc(C(F)(F)F)cc2)c(C(F)(F)F)c1", "note": "[VPC-70551]", "values": [
      {"measurement": "inhibition at 10 µM", "setting": "TABLE 6", "value": 91, "unit": "%"},
      {"measurement": "IC50", "setting": "TABLE 6 footnote", "value": 4, "unit": "µM"}
    ]},
    {"smiles": "O=C(CCNC(=O)c1cccc(C(F)(F)F)c1)NCc1ccccc1", "note": "[VPC-70554]", "values": [
      {"measurement": "inhibition at 12.5 µM", "setting": "TABLE 3", "value": 71, "unit": "%"}
    ]},
    {"smiles": "CC(C)(O)c1ccc(CNC(=S)NCc2cccc(C(F)(F)F)c2)cc1", "note": "[VPC-70561]", "values": [
      {"measurement": "inhibition at 12.5 µM", "setting": "TABLE 3", "value": 95, "unit": "%"}
    ]},
    {"smiles": "Cc1cc(NC(=S)NCc2ccon2)cc(C(F)(F)F)c1", "note": "[VPC-70564]", "values": [
      {"measurement": "inhibition at 12.5 µM", "setting": "TABLE 3", "value": 73, "unit": "%"}
    ]}
  ]
}
